# Reference: patent publication US7662832B2, “Pyrrolo[2,3-c]pyridine derivatives and processes for the preparation thereof” (priority 2004, dated 2010)
# Structures can show the parent of a compound that is named as a salt.
# Target: Proton Pump (H^+/K^+-ATPase) (Sus scrofa, UniProt P19156)
# Assay: Inhibitory effects on proton pump (H^+/K^+-ATPase) activity
# Type: biochemical
# Conditions: hog gastric vesicles; K^+ stimulated H^+/K^+-ATPase activity; 30 minutes at 37° C.
# Sequence of Proton Pump (H^+/K^+-ATPase) (P19156 2-1034 limits assumed): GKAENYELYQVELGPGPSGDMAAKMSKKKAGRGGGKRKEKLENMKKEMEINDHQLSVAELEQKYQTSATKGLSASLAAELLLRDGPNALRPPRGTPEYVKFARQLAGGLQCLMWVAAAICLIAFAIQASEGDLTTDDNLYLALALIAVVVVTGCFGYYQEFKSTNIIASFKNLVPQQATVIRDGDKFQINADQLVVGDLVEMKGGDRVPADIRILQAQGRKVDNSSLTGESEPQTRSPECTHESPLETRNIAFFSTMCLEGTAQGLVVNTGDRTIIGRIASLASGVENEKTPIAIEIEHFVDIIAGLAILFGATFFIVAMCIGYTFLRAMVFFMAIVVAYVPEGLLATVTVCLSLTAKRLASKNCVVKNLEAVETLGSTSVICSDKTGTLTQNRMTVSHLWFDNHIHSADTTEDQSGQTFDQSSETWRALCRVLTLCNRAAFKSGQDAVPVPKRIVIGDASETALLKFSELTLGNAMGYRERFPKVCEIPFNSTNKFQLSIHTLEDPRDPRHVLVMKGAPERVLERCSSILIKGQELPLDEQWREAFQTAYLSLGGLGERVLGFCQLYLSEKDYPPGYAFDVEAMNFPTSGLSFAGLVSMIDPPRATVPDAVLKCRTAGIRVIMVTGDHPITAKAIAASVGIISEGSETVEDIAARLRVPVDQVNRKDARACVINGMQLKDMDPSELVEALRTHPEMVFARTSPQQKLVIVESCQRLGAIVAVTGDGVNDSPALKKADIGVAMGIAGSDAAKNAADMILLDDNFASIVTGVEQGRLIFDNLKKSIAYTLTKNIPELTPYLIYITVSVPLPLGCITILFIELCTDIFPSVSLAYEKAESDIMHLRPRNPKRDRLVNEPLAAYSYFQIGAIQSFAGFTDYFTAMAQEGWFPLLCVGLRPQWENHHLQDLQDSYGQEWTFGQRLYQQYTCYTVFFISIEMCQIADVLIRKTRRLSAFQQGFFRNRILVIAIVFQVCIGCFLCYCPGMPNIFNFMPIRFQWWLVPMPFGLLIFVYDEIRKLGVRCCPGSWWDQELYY
# Sequence of Proton Pump (H^+/K^+-ATPase) (P18434 whole entry partner): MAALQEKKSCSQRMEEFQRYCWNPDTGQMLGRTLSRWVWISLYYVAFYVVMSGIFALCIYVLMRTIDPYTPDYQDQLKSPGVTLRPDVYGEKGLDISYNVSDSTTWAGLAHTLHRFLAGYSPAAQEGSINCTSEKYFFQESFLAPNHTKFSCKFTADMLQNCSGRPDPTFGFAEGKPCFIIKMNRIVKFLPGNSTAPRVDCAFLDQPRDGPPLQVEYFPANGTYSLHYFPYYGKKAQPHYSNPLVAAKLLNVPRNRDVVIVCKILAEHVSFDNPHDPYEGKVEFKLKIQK
row,Compound,IC50
1,"CCn1c(C)c(C)c2cc(C(=O)O)nc(N3CCc4ccccc4C3)c21 [Example 738, 7-(3,4-dihydro-1H-isoquinolin-2-yl)-1-ethyl-2,3-dimethyl-1H-pyrrolo[2,3-c]pyridin-5-carboxylic acid]",331 nM
2,"Cc1c(C)n(CC2CC2)c2c(N3CCc4ccccc4C3)nc(C(=O)O)cc12 [Example 740, 1-cyclopropylmethyl-7-(3,4-dihydro-1H-isoquinolin-2-yl)-2,3-dimethyl-1H-pyrrolo[2,3-c]pyridin-5-carboxylic acid]",267 nM
3,"COC(=O)c1cc2c(C)c(C)n(Cc3ccccc3)c2c(N2CCc3ccccc3C2)n1 [Example 743, 1-benzyl-7-(3,4-dihydro-1H-isoquinolin-2-yl)-2,3-dimethyl-1H-pyrrolo[2,3-c]pyridin-5-carboxylic acid methyl ester]",231 nM
4,"Cc1c(C)n(Cc2ccccc2)c2c(N3CCc4ccccc4C3)nc(C(=O)O)cc12 [Example 744, 1-benzyl-7-(3,4-dihydro-1H-isoquinolin-2-yl)-2,3-dimethyl-1H-pyrrolo[2,3-c]pyridin-5-carboxylate sodium]",130 nM
5,"Cc1c(C)n(Cc2ccccc2)c2c(N3CCc4ccccc4C3)nc(C(N)=O)cc12 [Example 745, 1-benzyl-7-(3,4-dihydro-1H-isoquinolin-2-yl)-2,3-dimethyl-1H-pyrrolo[2,3-c]pyridin-5-carboxamide]",112 nM
6,"Cc1c(C)n(Cc2cccc(Cl)c2)c2c(N3CCc4ccccc4C3)nc(C(N)=O)cc12 [Example 750, 1-(3-chlorobenzyl)-7-(3,4-dihydro-1H-isoquinolin-2-yl)-2,3-dimethyl-1H-pyrrolo[2,3-c]pyridin-5-carboxamide]",298 nM
7,"Cc1c(C)n(CC2CC2)c2c(N3CCc4ccccc4C3)nc(C(N)=O)cc12 [Example 754, 1-cyclopropylmethyl-7-(3,4-dihydro-1H-isoquinolin-2-yl)-2,3-dimethyl-1H-pyrrolo[2,3-c]pyridin-5-carboxamide]",4050 nM
8,"C=CCn1c(C)c(C)c2cc(C(=O)NCc3cccc(Cl)c3)nc(N3CCc4ccccc4C3)c21 [Example 758, 1-allyl-7-(3,4-dihydro-1H-isoquinolin-2-yl)-2,3-dimethyl-N-(3-chlorobenzyl)-1H-pyrrolo[2,3-c]pyridin-5-carboxamide hydrochloride]",316 nM
9,"C=CCn1c(C)c(C)c2cc(C(=O)NCc3ccc4c(c3)OCO4)nc(N3CCc4ccccc4C3)c21 [Example 760, 1-allyl-7-(3,4-dihydro-1H-isoquinolin-2-yl)-2,3-dimethyl-N-(benzo[1,3]dioxol-5-ylmethyl)-1H-pyrrolo[2,3-c]pyridin-5-carboxamide hydrochloride]",373 nM
10,"C=CCn1c(C)c(C)c2cc(C(=O)NC3CC3)nc(N3CCc4ccccc4C3)c21 [Example 761, 1-allyl-7-(3,4-dihydro-1H-isoquinolin-2-yl)-2,3-dimethyl-N-cyclopropyl-1H-pyrrolo[2,3-c]pyridin-5-carboxamide]",125 nM
11,"C=CCn1c(C)c(C)c2cc(C(=O)NCC(F)(F)F)nc(N3CCc4ccccc4C3)c21 [Example 762, 1-allyl-7-(3,4-dihydro-1H-isoquinolin-2-yl)-2,3-dimethyl-N-(2,2,2-trifluoroethyl)-1H-pyrrolo[2,3-c]pyridin-5-carboxamide]",350 nM
12,"Cc1c(C)n(Cc2ccccc2)c2c(N3CCc4ccccc4C3)nc(C(=O)N3CCOCC3)cc12 [Example 764, [1-benzyl-7-(3,4-dihydro-1H-isoquinolin-2-yl)-2,3-dimethyl-1H-pyrrolo[2,3-c]pyridin-5-yl]-(morpholin-4-yl)-methanone]",44 nM
13,"CCNC(=O)c1cc2c(C)c(C)n(Cc3ccccc3)c2c(N2CCc3ccccc3C2)n1 [Example 765, 1-benzyl-7-(3,4-dihydro-1H-isoquinolin-2-yl)-2,3-dimethyl-N-ethyl-1H-pyrrolo[2,3-c]pyridin-5-carboxamide]",356 nM
14,"Cc1c(C)n(Cc2ccccc2)c2c(N3CCc4ccccc4C3)nc(C(=O)N3CCOCC3)cc12 [Example 769, [1-benzyl-7-(3,4-dihydro-1H-isoquinolin-2-yl)-2,3-dimethyl-1H-pyrrolo[2,3-c]pyridin-5-yl]-(morpholin-4-yl)-methanone hydrochloride]",103 nM
15,"CNC(=O)c1cc2c(C)c(C)n(Cc3ccccc3)c2c(N2CCc3ccccc3C2)n1 [Example 772, 1-benzyl-7-(3,4-dihydro-1H-isoquinolin-2-yl)-2,3-dimethyl-N-methyl-1H-pyrrolo[2,3-c]pyridin-5-carboxamide hydrochloride]",546 nM
16,"Cc1[nH]c2c(N3CCc4ccccc4C3)nc(C(=O)N3CCOCC3)cc2c1C [Example 776, [7-(3,4-dihydro-1H-isoquinolin-2-yl)-2,3-dimethyl-1H-pyrrolo[2,3-c]pyridin-5-yl]-(morpholin-4-yl)-methanone]",85 nM
17,"Cc1c(C)n(CC2CC2)c2c(N3CCc4ccccc4C3)nc(C(=O)N3CCOCC3)cc12 [Example 778, [1-cyclopropylmethyl-7-(3,4-dihydro-1H-isoquinolin-2-yl)-2,3-dimethyl-1H-pyrrolo[2,3-c]pyridin-5-yl]-(morpholin-4-yl)-methanone hydrochloride]",39 nM
18,"Cc1c(C)n(Cc2cccc(F)c2)c2c(N3CCc4ccccc4C3)nc(C(=O)N3CCOCC3)cc12 [Example 779, [7-(3,4-dihydro-1H-isoquinolin-2-yl)-1-(3-fluorobenzyl)-2,3-dimethyl-1H-pyrrolo[2,3-c]pyridin-5-yl]-(morpholin-4-yl)-methanone hydrochloride]",62 nM
19,"COc1cccc(Cn2c(C)c(C)c3cc(C(=O)N4CCOCC4)nc(N4CCc5ccccc5C4)c32)c1 [Example 780, [7-(3,4-dihydro-1H-isoquinolin-2-yl)-1-(3-methoxybenzyl)-2,3-dimethyl-1H-pyrrolo[2,3-c]pyridin-5-yl]-(morpholin-4-yl)-methanone hydrochloride]",125 nM
20,"CCCn1c(C)c(C)c2cc(C(=O)N3CCOCC3)nc(N3CCc4ccccc4C3)c21 [Example 781, [7-(3,4-dihydro-1H-isoquinolin-2-yl)-2,3-dimethyl-1-propyl-1H-pyrrolo[2,3-c]pyridin-5-yl]-(morpholin-4-yl)-methanone hydrochloride]",39 nM
21,"COc1cccc(Cn2c(C)c(C)c3cc(C(=O)N4CCSCC4)nc(N4CCc5ccccc5C4)c32)c1 [Example 784, [7-(3,4-dihydro-1H-isoquinolin-2-yl)-1-(3-methoxybenzyl)-2,3-dimethyl-1H-pyrrolo[2,3-c]pyridin-5-yl]-(thiomorpholin-1-yl)-methanone hydrochloride]",202 nM
22,"Cc1c(C)n(Cc2ccccc2)c2c(N3CCc4ccccc4C3)nc(C(=O)N3CCCCC3)cc12 [Example 788, [1-benzyl-7-(3,4-dihydro-1H-isoquinolin-2-yl)-2,3-dimethyl-1H-pyrrolo[2,3-c]pyridin-5-yl]-(piperidin-1-yl)-methanone hydrochloride]",52 nM

# Compounds with a lower IC50, results first:
row,IC50,Compound
1,36 nM,"Cc1c(C)n(Cc2ccccc2)c2c(N3CCc4ccccc4C3)nc(C(=O)N(C)C)cc12 [Example 771, 1-benzyl-7-(3,4-dihydro-1H-isoquinolin-2-yl)-2,3-dimethyl-N-dimethyl-1H-pyrrolo[2,3-c]pyridin-5-carboxamide hydrochloride]"
2,30 nM,"C=CCn1c(C)c(C)c2cc(C(=O)NC)nc(N3CCc4ccccc4C3)c21 [Example 757, 1-allyl-7-(3,4-dihydro-1H-isoquinolin-2-yl)-2,3-dimethyl-N-methyl-1H-pyrrolo[2,3-c]pyridin-5-carboxamide hydrochloride]"
3,25 nM,"Cc1c(C)n(Cc2cccc(F)c2)c2c(N3CCc4ccccc4C3)nc(C(=O)O)cc12 [Example 737, 7-(3,4-dihydro-1H-isoquinolin-2-yl)-1-(3-fluorobenzyl)-2,3-dimethyl-1H-pyrrolo[2,3-c]pyridin-5-carboxylic acid]"
4,15 nM,"C=CCn1c(C)c(C)c2cc(C(=O)N3CCCCC3)nc(N3CCc4ccccc4C3)c21 [Example 786, [1-allyl-7-(3,4-dihydro-1H-isoquinolin-2-yl)-2,3-dimethyl-1H-pyrrolo[2,3-c]pyridin-5-yl]-(piperidin-1-yl)-methanone hydrochloride]"
5,3 nM,"COc1cccc(Cn2c(C)c(C)c3cc(C(=O)N4CCN(C)CC4)nc(N4CCc5ccccc5C4)c32)c1 [Example 783, [7-(3,4-dihydro-1H-isoquinolin-2-yl)-1-(3-methoxybenzyl)-2,3-dimethyl-1H-pyrrolo[2,3-c]pyridin-5-yl]-(4-methylpiperazin-1-yl)-methanone hydrochloride]"
6,1.6 nM,"C=CCn1c(C)c(C)c2cc(C(=O)N3CCOCC3)nc(N3CCc4ccccc4C3)c21 [Example 777, [1-allyl-7-(3,4-dihydro-1H-isoquinolin-2-yl)-2,3-dimethyl-1H-pyrrolo[2,3-c]pyridin-5-yl]-(morpholin-4-yl)-methanone hydrochloride]"
7,1.5 nM,"C#CCn1c(C)c(C)c2cc(C(N)=O)nc(N3CCc4ccccc4C3)c21 [Example 749, 7-(3,4-dihydro-1H-isoquinolin-2-yl)-2,3-dimethyl-1-(prop-2-ynyl)-1H-pyrrolo[2,3-c]pyridin-5-carboxamide]"
8,1.1 nM,"CCn1c(C)c(C)c2cc(C(=O)N3CCCCC3)nc(N3CCc4ccccc4C3)c21 [Example 787, [7-(3,4-dihydro-1H-isoquinolin-2-yl)-1-ethyl-2,3-dimethyl-1H-pyrrolo[2,3-c]pyridin-5-yl]-(piperidin-1-yl)-methanone hydrochloride]"
9,1 nM,"CCn1c(C)c(C)c2cc(C(=O)N3CCN(C)CC3)nc(N3CCc4ccccc4C3)c21 [Example 782, [7-(3,4-dihydro-1H-isoquinolin-2-yl)-1-ethyl-2,3-dimethyl-1H-pyrrolo[2,3-c]pyridin-5-yl]-(4-methylpiperazin-1-yl)-methanone hydrochloride]"
10,0.7 nM,"C=CCn1c(C)c(C)c2cc(C(=O)N3CCN(C)CC3)nc(N3CCc4ccccc4C3)c21 [Example 785, [1-allyl-7-(3,4-dihydro-1H-isoquinolin-2-yl)-2,3-dimethyl-1H-pyrrolo[2,3-c]pyridin-5-yl]-(4-methylpiperazin-1-yl)-methanone hydrochloride]"
